Assay results taken from ChEMBL document CHEMBL3632524, “3-(2,6-Dichloro-benzyloxy)-11-oxo-olean-12-ene-29-oic acid, a semisynthetic derivative of glycyrrhetic acid: synthesis, antiproliferative, apoptotic and anti-angiogenesis activity” (Medchemcomm, 2015).
Blank lines part the entries; values can stand above or below the compound they belong to. Activity calls are given as the source filed them. No cut-off for these calls is given here.

Legend:
PC-3 [1] = experiment: Antiproliferative activity against human PC3 cells assessed as cell viability after 48 hrs by MTT assay; assay type: functional, cell-based; conditions: PC-3, 48 h
[2] = Antiproliferative activity against human MIAPaCa2 cells assessed as cell viability after 48 hrs by MTT assay; assay type: functional, cell-based; conditions: MIA PaCa-2, 48 h
HepG2 = experiment: Antiproliferative activity against human HepG2 cells assessed as cell viability after 48 hrs by MTT assay; assay type: functional, cell-based; conditions: HepG2, 48 h
MIA PaCa-2 = experiment: Antiproliferative activity against human MIAPaCa2 cells assessed as cell viability by MTT assay; assay type: functional, cell-based; conditions: TDE = time-dependent effect
PC-3 [3] = experiment: Cell cycle arrest in human PC3 cells assessed as accumulation at sub G1 phase after 24 hrs by propidium iodide based flow cytometry; assay type: functional
PC-3 [4] = experiment: Cell cycle arrest in human PC3 cells assessed as accumulation at sub G1 phase at 5 uM after 24 hrs by propidium iodide based flow cytometry (reference value: 3%); assay type: functional
PC-3 [5] = experiment: Cell cycle arrest in human PC3 cells assessed as accumulation at sub G1 phase at 10 uM after 24 hrs by propidium iodide based flow cytometry (reference value: 3%); assay type: functional
PC-3 [6] = experiment: Cell cycle arrest in human PC3 cells assessed as accumulation at sub G1 phase at 20 uM after 24 hrs by propidium iodide based flow cytometry (reference value: 3%); assay type: functional
PC-3 [7] = experiment: Cell cycle arrest in human PC3 cells assessed as accumulation at G1 phase at 5 uM after 24 hrs by propidium iodide based flow cytometry (reference value: 50%); assay type: functional
PC-3 [8] = experiment: Cell cycle arrest in human PC3 cells assessed as accumulation at G1 phase at 10 uM after 24 hrs by propidium iodide based flow cytometry (reference value: 50%); assay type: functional
PC-3 [9] = experiment: Cell cycle arrest in human PC3 cells assessed as accumulation at G1 phase at 20 uM after 24 hrs by propidium iodide based flow cytometry (reference value: 50%); assay type: functional
PC-3 [10] = experiment: Cell cycle arrest in human PC3 cells assessed as accumulation at S phase at 5 uM after 24 hrs by propidium iodide based flow cytometry (reference value: 30%); assay type: functional
PC-3 [11] = experiment: Cell cycle arrest in human PC3 cells assessed as accumulation at S phase at 10 uM after 24 hrs by propidium iodide based flow cytometry (reference value: 30%); assay type: functional
PC-3 [12] = experiment: Cell cycle arrest in human PC3 cells assessed as accumulation at S phase at 20 uM after 24 hrs by propidium iodide based flow cytometry (reference value: 30%); assay type: functional
PC-3 [13] = experiment: Cell cycle arrest in human PC3 cells assessed as accumulation at G2 phase at 5 uM after 24 hrs by propidium iodide based flow cytometry (reference value: 20%); assay type: functional
PC-3 [14] = experiment: Cell cycle arrest in human PC3 cells assessed as accumulation at G2 phase at 10 uM after 24 hrs by propidium iodide based flow cytometry (reference value: 20%); assay type: functional
PC-3 [15] = experiment: Cell cycle arrest in human PC3 cells assessed as accumulation at G2 phase at 20 uM after 24 hrs by propidium iodide based flow cytometry (reference value: 20%); assay type: functional
PC-3 [16] = experiment: Cell cycle arrest in human PC3 cells assessed as accumulation at S phase after 24 hrs by propidium iodide based flow cytometry; assay type: functional
PC-3 [17] = experiment: Induction of apoptosis in human PC3 cells assessed as nuclear condensation after 24 hrs by fluorescence microscopic analysis; assay type: functional, cell-based
PC-3 [18] = experiment: Induction of apoptosis in human PC3 cells assessed as membrane blebbing after 24 hrs by fluorescence microscopic analysis; assay type: functional, cell-based
PC-3 [19] = experiment: Induction of apoptosis in human PC3 cells assessed as apoptotic bodies after 24 hrs by fluorescence microscopic analysis; assay type: functional, cell-based
PC-3 [20] = experiment: Disruption of mitochondrial membrane potential in human PC3 cells at 5 uM after 24 hrs by rhodamine-123 based fluorescence assay (reference value: 5%); assay type: functional
PC-3 [21] = experiment: Disruption of mitochondrial membrane potential in human PC3 cells at 10 uM after 24 hrs by rhodamine-123 based fluorescence assay (reference value: 5%); assay type: functional
PC-3 [22] = experiment: Disruption of mitochondrial membrane potential in human PC3 cells at 20 uM after 24 hrs by rhodamine-123 based fluorescence assay (reference value: 5%); assay type: functional
PC-3 [23] = experiment: Down regulation of Bcl-2 in human PC3 cells at 10 to 20 uM after 24 hrs by western blot analysis; assay type: functional, cell-based
PC-3 [24] = experiment: Induction of apoptosis in human PC3 cells assessed as translocation of Bax from cytosol to mitochondria at 5 to 20 uM after 24 hrs by western blot analysis; assay type: functional, cell-based
PC-3 [25] = experiment: Down regulation of procaspase-8 expression in human PC3 cells at 5 to 20 uM after 24 hrs by western blot analysis; assay type: functional, cell-based
[26] = Up regulation of PARP-1 expression in human PC3 cells at 5 to 20 uM after 24 hrs by western blot analysis; assay type: functional, cell-based; conditions: PC-3
PC-3 [27] = experiment: Induction of apoptosis in human PC3 cells assessed as decrease in Bcl2 to Bax ratio at 5 to 20 uM after 24 hrs by western blot analysis (reference value: 5); assay type: functional
HUVEC [28] = experiment: Antiangiogenic activity in HUVEC assessed as wound closure level at 20 uM after 24 hrs by wound healing assay (reference value: 100%); assay type: functional, Homo sapiens
PC-3 [29] = experiment: Antiangiogenic activity in human PC3 cells assessed as VEGF-induced migration at 5 to 30 uM after 24 hrs by wound healing assay; assay type: functional, cell-based
HUVEC [30] = experiment: Antiangiogenic activity in HUVEC assessed as VEGF-induced migration after 24 hrs by wound healing assay; assay type: functional, cell-based; conditions: Homo sapiens
PC-3 [31] = experiment: Antiproliferative activity against human PC3 cells assessed as cell viability after 6 hrs by MTT assay; assay type: functional, cell-based; conditions: PC-3, 6 h
PC-3 [32] = experiment: Antiproliferative activity against human PC3 cells assessed as cell viability after 12 hrs by MTT assay; assay type: functional, cell-based; conditions: PC-3, 12 h
PC-3 [33] = experiment: Antiproliferative activity against human PC3 cells assessed as cell viability after 18 hrs by MTT assay; assay type: functional, cell-based; conditions: PC-3, 18 h
PC-3 [34] = experiment: Antiproliferative activity against human PC3 cells assessed as cell viability after 24 hrs by MTT assay; assay type: functional, cell-based; conditions: PC-3, 24 h

SMILES: CC1(C)[C@@H](OCc2ccc(C(F)(F)F)cc2C(F)(F)F)CC[C@]2(C)[C@H]3C(=O)C=C4[C@@H]5C[C@@](C)(C(=O)O)CC[C@]5(C)CC[C@@]4(C)[C@]3(C)CC[C@@H]12
IC50 (PC-3 [1]): > 20 µM | IC50 [2]: > 20 µM | IC50 (HepG2): > 20 µM

SMILES: CC1(C)[C@@H](OCc2c(Cl)cccc2Cl)CC[C@]2(C)[C@H]3C(=O)C=C4[C@@H]5C[C@@](C)(C(=O)O)CC[C@]5(C)CC[C@@]4(C)[C@]3(C)CC[C@@H]12
IC50 (PC-3 [1]): 6 µM | IC50 [2]: 7 µM | IC50 (HepG2): 19 µM | Activity (MIA PaCa-2): tde | Activity (PC-3 [3]): Dose-dependent effect | Activity (PC-3 [4]): 8% | Activity (PC-3 [5]): 12% | Activity (PC-3 [6]): 37% | Activity (PC-3 [7]): 59% | Activity (PC-3 [8]): 51% | Activity (PC-3 [9]): 44% | Activity (PC-3 [10]): 40% | Activity (PC-3 [11]): 42% | Activity (PC-3 [12]): 53% | Activity (PC-3 [13]): 1% | Activity (PC-3 [14]): 7% | Activity (PC-3 [15]): 4% | Activity (PC-3 [16]): Dose-dependent effect | Activity (PC-3 [17]): Dose-dependent effect | Activity (PC-3 [18]): Dose-dependent effect | Activity (PC-3 [19]): Dose-dependent effect | Activity (PC-3 [20]): 12% | Activity (PC-3 [21]): 15% | Activity (PC-3 [22]): 38% | Activity (PC-3 [23]): Active | Activity (PC-3 [24]): Active | Activity (PC-3 [25]): Active | Activity [26]: Active | Ratio (PC-3 [27]): 0.5 | Activity (HUVEC [28]): 20% | Activity (PC-3 [29]): Dose-dependent effect | Activity (HUVEC [30]): Active | IC50 (PC-3 [31]): 400 µM | IC50 (PC-3 [32]): 370 µM | IC50 (PC-3 [33]): 100 µM | IC50 (PC-3 [34]): 15 µM

SMILES: CC1(C)[C@@H](OCc2cccc(Cl)c2)CC[C@]2(C)[C@H]3C(=O)C=C4[C@@H]5C[C@@](C)(C(=O)O)CC[C@]5(C)CC[C@@]4(C)[C@]3(C)CC[C@@H]12
IC50 (PC-3 [1]): > 20 µM | IC50 [2]: > 20 µM | IC50 (HepG2): > 20 µM

SMILES: CC1(C)[C@@H](OCc2c(F)cccc2Cl)CC[C@]2(C)[C@H]3C(=O)C=C4[C@@H]5C[C@@](C)(C(=O)O)CC[C@]5(C)CC[C@@]4(C)[C@]3(C)CC[C@@H]12
IC50 (PC-3 [1]): 10 µM | IC50 [2]: 11 µM | IC50 (HepG2): > 100 µM

SMILES: CC[C@@]1(O)C(=O)OCc2c1cc1n(c2=O)Cc2cc3ccccc3nc2-1 [CAMPTOTHECIN]
IC50 [2]: 0.19 µM | IC50 (HepG2): 0.2 µM

SMILES: CC1(C)[C@@H](OCc2ccc(F)cc2)CC[C@]2(C)[C@H]3C(=O)C=C4[C@@H]5C[C@@](C)(C(=O)O)CC[C@]5(C)CC[C@@]4(C)[C@]3(C)CC[C@@H]12
IC50 (PC-3 [1]): 9 µM | IC50 [2]: 12 µM | IC50 (HepG2): > 100 µM

Further lines, with some results ahead:

IC50 (PC-3 [1]): > 20 µM | IC50 (HepG2): > 20 µM
SMILES: CC1(C)[C@@H](OCc2ccccc2I)CC[C@]2(C)[C@H]3C(=O)C=C4[C@@H]5C[C@@](C)(C(=O)O)CC[C@]5(C)CC[C@@]4(C)[C@]3(C)CC[C@@H]12
IC50 [2]: > 20 µM

IC50 (PC-3 [1]): 0.012 µM | IC50 (HepG2): > 100 µM
SMILES: CC(=O)O[C@H]1C(=O)[C@@]2(C)[C@H]([C@H](OC(=O)c3ccccc3)[C@]3(O)C[C@H](OC(=O)[C@H](O)[C@@H](NC(=O)c4ccccc4)c4ccccc4)C(C)=C1C3(C)C)[C@]1(OC(C)=O)CO[C@@H]1C[C@@H]2O [PACLITAXEL]
IC50 [2]: 0.1 µM

IC50 (PC-3 [1]): > 20 µM | IC50 (HepG2): > 20 µM
SMILES: CC(C)=CCO[C@H]1CC[C@]2(C)[C@H]3C(=O)C=C4[C@@H]5C[C@@](C)(C(=O)O)CC[C@]5(C)CC[C@@]4(C)[C@]3(C)CC[C@H]2C1(C)C
IC50 [2]: > 20 µM

IC50 (PC-3 [1]): > 20 µM | IC50 (HepG2): > 20 µM
SMILES: CC1(C)[C@@H](OCc2ccc(F)c(Br)c2)CC[C@]2(C)[C@H]3C(=O)C=C4[C@@H]5C[C@@](C)(C(=O)O)CC[C@]5(C)CC[C@@]4(C)[C@]3(C)CC[C@@H]12
IC50 [2]: > 20 µM
